Like-named read-outs stand apart in the source and are kept apart here.
Columns and labels:
male Sprague Dawley rats = assay: Lethal dose range in rats, intraperitoneal administration; type: in vivo
Experimental: The three 1-alkyl-3-hydroxy-2-methylpyrid-4-ones dissolved in phosphate buffer saline were administered intraperitoneally to groups of three male Sprague Dawley rats (60-90g) at different doses until a near maximum non-lethal dose was established.

[1] = n-octanol/water (PBS) partition coefficient (K par) of the chelators and their iron complexes; type: physicochemical; conditions: for Kpar Chelator / Kpar iron Complex: n-octanol/phosphate buffer saline (PH 7.3), Table 7; for Kpar Chelator / K par Chelator: free chelator; for K par Chelator / K par Iron Complex: n-octanol/water (PBS), Table 4; for K par Iron Complex: iron complex of the chelator
Experimental: The n-octanol/water (PBS) partition coefficients (K par) of the chelators and their iron complexes were determined using a previously determined method.
(§1) The partition coefficients of the chelators and their iron complexes were determined using a mixture of n-octanol and phosphate buffer saline at pH 7.3 as previously described. The effect of the chelators on the incorporation of iron containing traces of ⁵⁹Fe into red blood cells was studied as previously described by incubating the chelator iron complexes with packed red blood cells at 37°C, withdrawing aliquots, centrifuging and measuring the incorporation of ⁵⁹Fe into the red blood cells.

red blood cells = assay: Red blood cell permeability: incorporation of 59Fe into red blood cells in the presence of the chelators; type: cell-based; conditions: iron 2.5 x 10⁻⁵M, chelators 18 x 10⁻⁵M, packed red blood cells, 37°C
Experimental: as §1

[2] = pKa determination of the chelators; type: physicochemical
loaded mice and rabbits = conditions: doses of up to 200 mg/kg, also non iron loaded mice; cited from earlier work
human transferrin = target: T1, human transferrin (Homo sapiens, UniProt P02787); assay: Iron mobilisation from 59Fe transferrin by dialysis against chelator solution; type: biochemical; conditions: chelator 4x10⁻³M, 37°C, pH 7.3, 2 x PBS
T1 construct: purchased Sigma
Experimental: Human apotransferrin (Sigma) was radioactively labelled with ⁵⁹Fe and saturated with iron as previously described. Samples (1.5ml) of the ⁵⁹Fe transferrin (0.54mg protein, 0.75 µg iron, 0.07 µCi ⁵⁹Fe) were enclosed in a dialysis bag and dialysed against a chelator solution (10ml, 4mM) by continuous stirring at 37°C. Samples (1ml) of the dialysate were removed at different time intervals, the ⁵⁹Fe activity measured and then returned back into the incubation mixture. Ferritin solution and haemosiderin solid were isloated from a spleen of a thalassemia patient and samples containing the same amount of iron (0.25mg, 1.5ml) were dialysed at 37°C against a chelator solution (4mM, 10ml) over a 12 day period. The amount of iron immobilised was estimated spectrophotometrically by measuring the visible absorbance of the dialysate and by using the extinction coefficient of the chelator iron complex (Fig 3, Table 6). All the protein incubations with the chelators were carried out in the 2xPBS pH 7.3.
Haemosiderin (0.25mg iron, 16.5% w/w iron, […]) ferritin (0.25mg iron, 10.7% w/w iron, 1.5ml) and transferrin (0.75ug iron, 0.54mg protein, 0.07 uCi ⁵⁹Fe, 1.5ml) in dialysis bags were dialysed against the chelators (4x10⁻³M, 10ml) at 37°C, pH 7.3 in 2 x PBS by continuous stirring. Iron mobilisation was estimated from samples of the dialysates taken at different time intervals as explained in the Materials and Methods section.

[3] = test system: iron loaded ⁵⁹Fe transferrin labelled mice; assay: Iron mobilisation (59Fe excretion) from iron loaded 59Fe transferrin labelled mice; type: in vivo; conditions: dose 10mg; for %⁵⁹Fe excretion X ± SE: mice 31-35g, mean of 3 days before chelator administration = 100%
From the text: Iron mobilisation from iron loaded ⁵⁹Fe transferrin labelled mice by the 1-alkyl-2-ethyl-3-hydroxypyrid-4-ones was studied as previously described.

haemosiderin = assay: Iron mobilisation from haemosiderin by dialysis against chelator solution; type: biochemical, human; conditions: chelator 4x10⁻³M, 37°C, pH 7.3, 2 x PBS, * = duplicate samples
Experimental: • Fig 1: pH titration of the chelator iron complexes. Chelators (2mM in 0.1M NaCl, 25ml) and freshly prepared iron (III) chloride (0.5mM in 0.1M NaCl, 25ml) were mixed and titrated with HCl (10M) and NaOH (5M). The absorbance of the chelator iron mixture at 460nm was measured after each pH change. 1-Methyl- (Δ), 1-ethyl- (□) and 1-propyl- (◇) -2-ethyl-3-hydroxypyrid-4-ones. • Fig 2: • A. Job plots of the 1-alkyl-2-ethyl-3-hydroxypyrid-4-ones with iron at pH 7.3. Chelators (2mM in […] 0-5ml) and iron (2mM in 0.1M NaCl, 0-5ml) were mixed at different molar ratios to a final volume of 5ml. 4 x PBS (5ml), pH 7.3 was then added and the absorbance at 460nm measured. […] Theoretical Job plots for 1:1, 2:1, 3:1 chelator:iron complexes were obtained using the maximum absorbance values from the Job plots in A. 1:1 (◇) 2:1 (□), 3:1 (Δ). • Fig. 3: Iron mobilisation from human ferritin and haemosiderin using 1-alkyl-2-ethyl-3-hydroxypyrid-4-ones. […] The progress of the reaction was followed by measuring the absorbance at 460nm of the dialysate at different time intervals.
Human apotransferrin (Sigma) was radioactively labelled with ⁵⁹Fe and saturated with iron as previously described. […] Samples (1ml) of the dialysate were removed at different time intervals, the ⁵⁹Fe activity measured and then returned back into the incubation mixture. […]

[4] = pKa of the hydroxyl group, read-out: Pka(2)
[5] = male, Sprague Dawley, rat, in vivo, ip

T1 sequence (P02787 20-698): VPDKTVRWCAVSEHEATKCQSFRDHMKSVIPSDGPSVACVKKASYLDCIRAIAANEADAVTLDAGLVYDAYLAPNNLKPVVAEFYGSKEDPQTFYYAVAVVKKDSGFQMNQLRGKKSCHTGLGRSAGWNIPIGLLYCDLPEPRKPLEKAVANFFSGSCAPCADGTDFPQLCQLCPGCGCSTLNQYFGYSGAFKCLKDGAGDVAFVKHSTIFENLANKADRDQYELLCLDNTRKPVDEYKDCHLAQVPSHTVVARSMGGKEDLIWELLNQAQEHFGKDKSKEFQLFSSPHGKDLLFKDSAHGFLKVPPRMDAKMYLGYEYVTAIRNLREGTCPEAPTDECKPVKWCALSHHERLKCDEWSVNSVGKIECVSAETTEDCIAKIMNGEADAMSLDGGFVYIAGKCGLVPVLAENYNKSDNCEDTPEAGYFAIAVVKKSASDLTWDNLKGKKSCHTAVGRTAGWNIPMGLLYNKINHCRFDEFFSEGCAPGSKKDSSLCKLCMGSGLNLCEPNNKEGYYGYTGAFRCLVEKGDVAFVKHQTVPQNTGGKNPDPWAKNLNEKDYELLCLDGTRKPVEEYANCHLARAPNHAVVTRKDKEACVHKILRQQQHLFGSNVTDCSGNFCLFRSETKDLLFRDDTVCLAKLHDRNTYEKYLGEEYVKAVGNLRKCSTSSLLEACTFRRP

SMILES	Lethal Dose (range) (male Sprague Dawley rats; rats, intraperitoneally, range of doses, the higher being lethal and the lower a non-lethal dose) [mg/kg]	Kpar Chelator [1]	Kpar iron Complex [1]	K par Chelator [1]	K par Iron Complex [1]	⁵⁹Fe incorporation (%) 20 min (red blood cells) [%]	⁵⁹Fe incorporation (%) 1h (red blood cells) [%]	pKa [2, 4]	pKa ([2]; read-out: PKa(1))	increasing iron excretion (loaded mice and rabbits)	Lethal Dose (range) (male Sprague Dawley rats; [5]) [mg/kg]	Percentage Iron Removal Transferrin ⁵⁹Fe 1h (human transferrin)	Percentage Iron Removal Transferrin ⁵⁹Fe 2h (human transferrin)	Percentage Iron Removal Transferrin ⁵⁹Fe 8h (human transferrin)	%⁵⁹Fe excretion X ± SE ([3]; ig) [%]	%⁵⁹Fe excretion X ± SE ([3]; ip) [%]	Percentage Iron Removal Haemosiderin 24h (haemosiderin; 24h)	Percentage Iron Removal Haemosiderin 12d (haemosiderin; 12d)	death of mice before the completion of the treatment ([3]; mice, ip or ig, 11 administrations)
CCn1ccc(=O)c(O)c1C [Example 2, 1-Ethyl-3-hydroxy-2-methylpyrid-4-one]	400 to 500	0.47	0.52	0.37	0.52	5.0	10	10.3	3.6	effective									
Cc1c(O)c(=O)ccn1C [Example 1, 1,2-Dimethyl-3-hydroxypyrid-4-one]		0.19	0.24	0.19	0.24	5.0	5.0	9.7	3.3	effective	600 to 700	37.3	69.9	99.5					
CCCn1ccc(=O)c(O)c1C [Example 3, 3-Hydroxy-2-methyl-1-propylpyrid-4-one]						85	86	10.2	3.7		150 to 200								
CCc1c(O)c(=O)ccn1CC [Example 5, 1,2-diethyl-3-hydroxypyrid-4-one]				1.4	0.28			10.1	3.7			24.9	51.8	96.6	309 ± 22	371 ± 46			
CCc1c(O)c(=O)ccn1C [Example 4, 2-Ethyl-3-hydroxy-1-methylpyrid-4-one]				0.4	0.02			9.8	3.7			36.0	56.6	100.0	362 ± 53	415 ± 42			
CCCn1ccc(=O)c(O)c1CC [Example 6, 2-ethyl-3-hydroxy-1-propylpyrid-4-one]				4.2	9.68			10.1	3.4			23.2	50.3	97.6	163 ± 25	334 ± 64	27.8	74.5	caused death to two mice
CC(=O)N(O)CCCCCNC(=O)CCC(=O)N(O)CCCCCNC(=O)CCC(=O)N(O)CCCCCN [Desferrioxamine, reference compound]																381 ± 49			
